Consider 12 compounds from US7880007B2, “Bicyclic substituted phenyl piperidine modulators of muscarinic receptors” (Vertex Pharmaceuticals Incorporated, priority 2004, dated 2011).

Molecules are shown by their SMILES.

What all share (type): cell-based
The target of one assay is T1, M4 muscarinic receptor (Homo sapiens, UniProt P08173).
T1 construct: expressed in transfected cells; host or cells: CHO (M4-CHO)
T1 sequence (P08173 1-479): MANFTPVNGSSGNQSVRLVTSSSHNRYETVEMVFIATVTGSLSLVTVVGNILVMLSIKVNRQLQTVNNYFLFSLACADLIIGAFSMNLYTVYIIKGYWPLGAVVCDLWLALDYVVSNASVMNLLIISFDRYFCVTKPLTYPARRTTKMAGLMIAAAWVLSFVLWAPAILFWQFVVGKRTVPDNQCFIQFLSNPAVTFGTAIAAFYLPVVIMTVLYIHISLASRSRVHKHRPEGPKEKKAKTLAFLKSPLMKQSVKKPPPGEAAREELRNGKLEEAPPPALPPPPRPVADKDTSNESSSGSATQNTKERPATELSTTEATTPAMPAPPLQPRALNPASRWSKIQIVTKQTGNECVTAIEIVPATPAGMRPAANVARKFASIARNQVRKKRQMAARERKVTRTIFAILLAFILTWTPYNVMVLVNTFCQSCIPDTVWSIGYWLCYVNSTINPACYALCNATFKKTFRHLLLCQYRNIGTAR
Put plainly: Functional mobilization of intracellular calcium (FLIPR), M4-CHO cells. The settings on record: for Emax: 100% efficacy = maximum response obtained with the Carbachol control; for M4 Activity: M4-CHO cells, calcium mobilization (FLIPR). In short, it runs like this:
(§1)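 Calcium mobilisation read by FLIPR over 60 s (ex 488/em 540 nm) in recombinant muscarinic CHO lines loaded with calcium dye plus 1 mM probenecid. Compounds tested as agonists alone, or as inhibitors against EC80 carbachol after 15 min pre-incubation or co-addition; 0.5% DMSO; efficacy scaled to carbachol maximal response.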
(Calcium assays in cells follow changes in intracellular calcium, usually with a dye or a luminescent sensor.)

A further assay has as its target T2, M2 muscarinic receptor (Homo sapiens, UniProt P08172).
T2 construct: expressed in transfected cells; host or cells: CHO (M2-CHO)
T2 sequence (P08172 1-466): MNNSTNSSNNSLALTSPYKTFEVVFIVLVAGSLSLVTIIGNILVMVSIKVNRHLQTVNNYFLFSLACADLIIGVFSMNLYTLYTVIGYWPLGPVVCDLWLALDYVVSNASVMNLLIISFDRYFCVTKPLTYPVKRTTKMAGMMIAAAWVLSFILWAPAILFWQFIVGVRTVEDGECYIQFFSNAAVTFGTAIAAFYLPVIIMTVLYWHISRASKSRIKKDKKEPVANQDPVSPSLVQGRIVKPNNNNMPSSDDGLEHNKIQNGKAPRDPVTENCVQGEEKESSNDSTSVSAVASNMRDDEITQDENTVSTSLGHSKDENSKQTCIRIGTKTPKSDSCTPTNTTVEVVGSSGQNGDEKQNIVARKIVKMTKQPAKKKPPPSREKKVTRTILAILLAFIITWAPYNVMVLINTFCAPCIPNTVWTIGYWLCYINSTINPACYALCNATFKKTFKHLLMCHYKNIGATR
Put plainly: Functional mobilization of intracellular calcium (FLIPR), M2-CHO cells. Particulars: for Emax: 100% efficacy = maximum response obtained with the Carbachol control; for M2 Activity: M2-CHO cells, calcium mobilization (FLIPR). In short, it runs like this:
as §1

A further assay deals with T3, M1 muscarinic receptor (Homo sapiens, UniProt P11229).
T3 construct: expressed in transfected cells; host or cells: CHO (M1-CHO)
T3 sequence (P11229 1-460): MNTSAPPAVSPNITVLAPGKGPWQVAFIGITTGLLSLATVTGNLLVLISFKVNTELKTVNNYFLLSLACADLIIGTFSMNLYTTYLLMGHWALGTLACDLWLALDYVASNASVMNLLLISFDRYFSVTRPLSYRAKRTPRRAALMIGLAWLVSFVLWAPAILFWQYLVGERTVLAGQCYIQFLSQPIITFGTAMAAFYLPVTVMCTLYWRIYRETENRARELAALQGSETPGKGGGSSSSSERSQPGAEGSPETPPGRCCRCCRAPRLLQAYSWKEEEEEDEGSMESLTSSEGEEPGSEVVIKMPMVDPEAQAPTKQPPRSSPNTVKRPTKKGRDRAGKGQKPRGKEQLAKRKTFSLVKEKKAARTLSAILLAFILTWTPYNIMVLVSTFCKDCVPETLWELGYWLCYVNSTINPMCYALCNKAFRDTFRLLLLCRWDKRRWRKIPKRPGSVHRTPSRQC
Description: Functional mobilization of intracellular calcium (FLIPR), M1-CHO cells. The settings on record: for Emax: 100% efficacy = maximum response obtained with the Carbachol control; for M1 Activity: M1-CHO cells, calcium mobilization (FLIPR). A digest of the protocol:
as §1

In another assay the target is T4, M3 muscarinic receptor (Homo sapiens, UniProt P20309).
T4 construct: expressed in transfected cells; host or cells: CHO (M3-CHO)
T4 sequence (P20309 whole entry): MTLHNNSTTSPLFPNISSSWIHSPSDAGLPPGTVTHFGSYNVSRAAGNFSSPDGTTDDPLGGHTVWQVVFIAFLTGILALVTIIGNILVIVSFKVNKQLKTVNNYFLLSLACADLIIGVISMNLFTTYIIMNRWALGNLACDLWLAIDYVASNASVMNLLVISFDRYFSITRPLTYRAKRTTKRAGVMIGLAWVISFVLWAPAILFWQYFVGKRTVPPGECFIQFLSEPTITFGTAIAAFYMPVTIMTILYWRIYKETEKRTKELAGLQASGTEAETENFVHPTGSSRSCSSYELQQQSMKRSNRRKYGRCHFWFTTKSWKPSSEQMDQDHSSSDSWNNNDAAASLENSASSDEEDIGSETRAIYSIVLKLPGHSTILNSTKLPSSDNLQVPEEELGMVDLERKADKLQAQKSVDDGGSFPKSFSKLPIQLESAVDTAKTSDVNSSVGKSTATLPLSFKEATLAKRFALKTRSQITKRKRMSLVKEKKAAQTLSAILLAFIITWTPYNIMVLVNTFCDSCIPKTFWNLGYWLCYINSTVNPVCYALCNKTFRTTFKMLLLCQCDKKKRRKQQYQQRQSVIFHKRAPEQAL
Put plainly: Functional mobilization of intracellular calcium (FLIPR), M3-CHO cells. The settings on record: for Emax: 100% efficacy = maximum response obtained with the Carbachol control; for M3 Activity: M3-CHO cells, calcium mobilization (FLIPR). In short, it runs like this:
as §1

As for `CCOC(=O)N1CCC(CN2CCC(O)(c3cc(F)ccc3OC)CC2)CC1` [Compound 189], at M4 muscarinic receptor, the maximal effect (Emax) (usually the greatest response seen or fitted, relative to the assay's reference) was 25 to 100% and the “M4 Activity” value is recorded as “+++ (activity was measured to be less than 1.0 μM)”. Besides, at M2 muscarinic receptor, the Emax was less than 25% and the “M2 Activity” value was “+ (activity was measured to be greater than 5.0 μM)”. Besides, on M1 muscarinic receptor, the Emax lay in the range of 25 to 100% and the “M1 Activity” value is recorded as “+++ (activity was measured to be less than 1.0 μM)”. Moreover, on M3 muscarinic receptor, the Emax is less than 25% and the “M3 Activity” value is “+ (activity was measured to be greater than 5.0 μM)”.
For `COc1ccc(-c2ccc(CC#N)cc2)cc1C1CCN(C2C[C@H]3CC[C@H]2C3)CC1` (stereo partly drawn) [Compound 190], on M4 muscarinic receptor, the Emax fell in the range of 25 to 100% and the “M4 Activity” value is “+ (activity was measured to be greater than 5.0 μM)”. Moreover, on M2 muscarinic receptor, the Emax was less than 25% and the “M2 Activity” value was “+ (activity was measured to be greater than 5.0 μM)”. In addition, on M1 muscarinic receptor, the Emax is less than 25% and the “M1 Activity” value is recorded as “+ (activity was measured to be greater than 5.0 μM)”. For the same compound, on M3 muscarinic receptor, the Emax was less than 25% and the “M3 Activity” value is “+ (activity was measured to be greater than 5.0 μM)”.
As to `COc1ccc(-c2ccc(C(C)(C)C#N)cc2)cc1C1CCN(C2CCOCC2)CC1` [Compound 192], on M4 muscarinic receptor, the maximum response (Emax) was in the range of 25 to 100% and the “M4 Activity” value is on record as “+ (activity was measured to be greater than 5.0 μM)”. In addition, on M2 muscarinic receptor, the Emax is less than 25% and the “M2 Activity” value is recorded as “+ (activity was measured to be greater than 5.0 μM)”. Moreover, at M1 muscarinic receptor, the Emax is 25 to 100% and the “M1 Activity” value is given as “+ (activity was measured to be greater than 5.0 μM)”. Also, at M3 muscarinic receptor, the Emax was less than 25% and the “M3 Activity” value is given as “+ (activity was measured to be greater than 5.0 μM)”.
With `COc1ccc(F)cc1C1CCN(C2CCOCC2)CC1` [Compound 193], on M4 muscarinic receptor, the Emax was 25 to 100% and the “M4 Activity” value is “+++ (activity was measured to be less than 1.0 μM)”. Also, at M2 muscarinic receptor, the Emax lay within 25 to 100% and the “M2 Activity” value is “+ (activity was measured to be greater than 5.0 μM)”. For the same compound, on M1 muscarinic receptor, the Emax lay within 25 to 100% and the “M1 Activity” value is listed as “++ (activity was measured to be from 1.0 μM to 5.0 μM)”. Besides, at M3 muscarinic receptor, the Emax is less than 25% and the “M3 Activity” value was “+ (activity was measured to be greater than 5.0 μM)”.
On to `c1ccc(C2CCN([C@H]3C[C@H]4CC[C@H]3C4)CC2)c(-c2ccc3c(c2)OCO3)c1` [Compound 195], for which, on M4 muscarinic receptor, the Emax is 25 to 100% and the “M4 Activity” value is on record as “+++ (activity was measured to be less than 1.0 μM)”. In addition, at M2 muscarinic receptor, the Emax was less than 25% and the “M2 Activity” value is given as “+ (activity was measured to be greater than 5.0 μM)”. In addition, on M1 muscarinic receptor, the Emax lay within 25 to 100% and the “M1 Activity” value was “+ (activity was measured to be greater than 5.0 μM)”. Also, at M3 muscarinic receptor, the Emax is less than 25% and the “M3 Activity” value is recorded as “+ (activity was measured to be greater than 5.0 μM)”.
`CNC(=O)c1ccc(-c2ccc(OC)c(C3CCN(C4CC5CCC(C5)C4)CC3)c2)cc1` (stereo not drawn) [Compound 196]: at M4 muscarinic receptor, the maximum response (Emax) fell in the range of 25 to 100% and the “M4 Activity” value was “+++ (activity was measured to be less than 1.0 μM)”. Also, on M2 muscarinic receptor, the Emax was less than 25% and the “M2 Activity” value is “+ (activity was measured to be greater than 5.0 μM)”. Besides, on M1 muscarinic receptor, the Emax was less than 25% and the “M1 Activity” value is given as “+ (activity was measured to be greater than 5.0 μM)”. Further, at M3 muscarinic receptor, the Emax was less than 25% and the “M3 Activity” value is listed as “+ (activity was measured to be greater than 5.0 μM)”.
With `COc1ccccc1C1(O)CCN([C@H]2C[C@H]3CC[C@H]2C3)CC1O` (stereo partly drawn) [Compound 197], on M4 muscarinic receptor, the Emax lay within 25 to 100% and the “M4 Activity” value is recorded as “+ (activity was measured to be greater than 5.0 μM)”. Also, at M2 muscarinic receptor, the Emax is less than 25% and the “M2 Activity” value is reported as “+ (activity was measured to be greater than 5.0 μM)”. On M1 muscarinic receptor, the Emax is less than 25% and the “M1 Activity” value is reported as “+ (activity was measured to be greater than 5.0 μM)”. Further, at M3 muscarinic receptor, the Emax is less than 25% and the “M3 Activity” value was “+ (activity was measured to be greater than 5.0 μM)”.
Consider `CCOC(=O)N1C2CCC1CC(N1CCC(c3cc(F)cc(F)c3OC)CC1)C2` (stereo not drawn) [Compound 198], for which, on M4 muscarinic receptor, the Emax was in the range of 25 to 100% and the “M4 Activity” value was “+++ (activity was measured to be less than 1.0 μM)”. For the same compound, on M2 muscarinic receptor, the Emax was less than 25% and the “M2 Activity” value is given as “+ (activity was measured to be greater than 5.0 μM)”. For the same compound, at M1 muscarinic receptor, the Emax was in the range of 25 to 100% and the “M1 Activity” value is recorded as “++ (activity was measured to be from 1.0 μM to 5.0 μM)”. At M3 muscarinic receptor, the Emax is less than 25% and the “M3 Activity” value is on record as “+ (activity was measured to be greater than 5.0 μM)”.
`COc1ccccc1C1CCN(C2CCCC3(CCCCC3)C2)CC1` (stereo not drawn) [Compound 199]: at M4 muscarinic receptor, the Emax is less than 25% and the “M4 Activity” value is “+ (activity was measured to be greater than 5.0 μM)”. In addition, at M2 muscarinic receptor, the Emax is less than 25% and the “M2 Activity” value is “+ (activity was measured to be greater than 5.0 μM)”. Besides, at M1 muscarinic receptor, the Emax was less than 25% and the “M1 Activity” value is listed as “+ (activity was measured to be greater than 5.0 μM)”. For the same compound, at M3 muscarinic receptor, the Emax was less than 25% and the “M3 Activity” value is “+ (activity was measured to be greater than 5.0 μM)”.
As for `COc1ccc(F)cc1C1CCN(C2CCCCC2)CC1` [Compound 200], on M4 muscarinic receptor, the Emax is 25 to 100% and the “M4 Activity” value is given as “+++ (activity was measured to be less than 1.0 μM)”. Besides, at M2 muscarinic receptor, the Emax lay within 25 to 100% and the “M2 Activity” value is reported as “++ (activity was measured to be from 1.0 μM to 5.0 μM)”. Moreover, at M1 muscarinic receptor, the Emax lay within 25 to 100% and the “M1 Activity” value is recorded as “+++ (activity was measured to be less than 1.0 μM)”. Also, on M3 muscarinic receptor, the maximal response (Emax) was less than 25% and the “M3 Activity” value is listed as “+ (activity was measured to be greater than 5.0 μM)”.
Consider `CCOC(=O)N1C2CCC1CC(N1CCC(c3ccccc3OC)CC1)C2` (stereo not drawn) [Compound 202], for which, on M4 muscarinic receptor, the Emax lay in the range of 25 to 100% and the “M4 Activity” value is on record as “+++ (activity was measured to be less than 1.0 μM)”. Also, at M2 muscarinic receptor, the Emax fell in the range of 25 to 100% and the “M2 Activity” value is recorded as “++ (activity was measured to be from 1.0 μM to 5.0 μM)”. At M1 muscarinic receptor, the Emax lay in the range of 25 to 100% and the “M1 Activity” value was “+++ (activity was measured to be less than 1.0 μM)”. At M3 muscarinic receptor, the Emax is less than 25% and the “M3 Activity” value is “+ (activity was measured to be greater than 5.0 μM)”.
Turning to `Fc1ccc(F)c(C2CCN(C3C[C@H]4CC[C@H]3C4)CC2)c1` (stereo partly drawn) [Compound 205], at M4 muscarinic receptor, the Emax is 25 to 100% and the “M4 Activity” value was “+++ (activity was measured to be less than 1.0 μM)”. In addition, on M2 muscarinic receptor, the Emax lay within 25 to 100% and the “M2 Activity” value is given as “++ (activity was measured to be from 1.0 μM to 5.0 μM)”. For the same compound, on M1 muscarinic receptor, the Emax lay within 25 to 100% and the “M1 Activity” value is “++ (activity was measured to be from 1.0 μM to 5.0 μM)”. Further, at M3 muscarinic receptor, the Emax is less than 25% and the “M3 Activity” value is given as “+ (activity was measured to be greater than 5.0 μM)”.
